Laboratory results taken from patent US5594009A, “Fused pyrrolocarbazoles” (priority 1995, dated 1997).

Tested on: choline acetyltransferase (ChAT) activity in dissociated rat embryonic spinal cord culture
Assay: Spinal Cord ChAT Activity Assay; further: test concentration or dose not given here
Assay type: cell-based
Conditions: ChAT measured after 48 hours

Compound | Spinal Cord ChAT Activity, % of Control, untreated cultures
2-Chloro-6H, 7H, 12H, 13H-indeno[2,3-a]pyrrolo[3,4-c]carbazole-5(5H)one and 2-chloro-5H, 6H, 12H, 13H-indeno[2,3-a]pyrrolo[3,4-c]carbazole-7(7H)one [Compound Ia-2] | 161 % of Control
3-Fluoro6H, 7H, 12H, 13H-indeno[2,3-a]pyrrolo[3,4-c]carbazole-5(5H)one and 3-fluoro-5H, 6H, 12H, 13H-indeno[2,3-a]pyrrolo[3,4-c]carbazole-7((7H)one [Compound I-8] | 200 % of Control
Cn1c2ccccc2c2c3c(c4c(c21)Cc1ccccc1-4)C(=O)NC3=O [Compound I-4, 13-Methyl-6H, 12H-indeno[2,3-a]pyrrolo[3,4-c]carbazole-5,7(5H, 7H)-dione] | 124 % of Control
O=C1NC(=O)c2c1c1c(c3[nH]c4ccc(Cl)cc4c23)Cc2ccccc2-1 [Compound I-10, 3-Chloro-6H , 12H, 13H-indeno[2,3-a]pyrrolo[3,4-c]carbazole-5,7(5H, 7H)-dione] | 189 % of Control
COc1ccc2[nH]c3c4c(c5c(c3c2c1)CNC5=O)-c1ccccc1C4 [Compound I-13, 3-Methoxy-5H, 6H, 12H, 13H-Indeno[2,3-a]pyrrolo[3,4-c]carbazole-7(7H)one] | 217 % of Control
O=C1NCc2c3c(c4[nH]c5ccc(Br)cc5c4c21)CCc1ccccc1-3 [Compound I-18, 3-Bromo-12,13-dihydro-6H, 7H, 14H-naphthyl[3,4-a]pyrrolo[3,4-c]carbazole-5(5H)one] | 133 % of Control
O=C1NCc2c1c1c(c3[nH]c4ccc(Br)cc4c23)CCc2ccccc2-1 [Compound I-19, 3-Bromo-12,13-Dihydro-5H, 6H, 14H-naphthyl[3,4-a]pyrrolo[3,4-c]carbazole-7(7H)one] | 203 % of Control
CCOC(=O)C=Cc1ccc2[nH]c3c4c(c5c(c3c2c1)CNC5=O)-c1ccccc1C4 [Compound I-25, 3-(3-Ethyl propenoate)-5H,6H,12H,13H-indeno[2,3-a]pyrrolo[3,4-c]carbazole-7(7H)one] | 168 % of Control
O=C1NCc2c1c1c(c3[nH]c4ccc(-c5ccccc5)cc4c23)Cc2ccccc2-1 [Compound I-27, 3-Phenyl-5H,6H,12H,13H-indeno[2,3-a]pyrrolo[3,4-c]carbazole-7(7H)one] | 120 % of Control
O=c1[nH]c(=O)c2c1c1c3ccccc3[nH]c1c1c(=O)c3ccccc3c12 [Compound I-28, 12-Oxo-6H,13H-indeno[2,3-a]pyrrolo[3,4-c]carbazole-5,7(5H,7H)dione] | < 120 % of Control
O=C1NCc2c1c1c(c3[nH]c4ccc(C=Cc5ccncc5)cc4c23)Cc2ccccc2-1 [Compound I-33, 3-(2-(4-Pyridyl)ethenyl)-5H,6H,12H,13H-indeno[2,3-a]pyrrolo[3,4-c]carbazole-7(7H)-one] | 144 % of Control
N#CC=Cc1ccc2[nH]c3c4c(c5c(c3c2c1)CNC5=O)-c1ccccc1C4 [Compound I-35, 3-(2-Cyanoethenyl)-5H,6H,12H,13H-indeno[2,3-a]pyrrolo[3,4-c]carbazole-7(7H)one] | 121 % of Control
CCCCCc1ccc2[nH]c3c4c(c5c(c3c2c1)C(=O)NC5=O)-c1ccccc1C4 [Compound I-37, 3-Pentyl-6H,12H,13H-indeno[2,3-a]pyrrolo[3,4-c]carbazole-5,7(5H,7H)dione] | < 120 % of Control
O=C1NC(O)c2c1c1c3ccccc3ccc1c1[nH]c3ccccc3c21 (centres unmarked) [Compound I-38, 5-Hydroxy-12,13-dihydro-6H, 14H-naphthyl[3,4-a]pyrrolo[3,4-c]carbazole-7(7H)one] | 208 % of Control
O=C1NCc2c1c1c(c3[nH]c4ccc(C=CN5C(=O)c6ccccc6C5=O)cc4c23)Cc2ccccc2-1 [Compound I-39, 3-(2-(2-Phthalimido)ethenyl)-5H,6H,12H,13H-indeno[2,3-a]pyrrolo[3,4-c]carbazole-7(7H)-one] | 268 % of Control
O=C1NCc2c1c1c(c3[nH]c4ccc(I)cc4c23)Cc2ccccc2-1 [Compound I-40, 3-Iodo-5H, 6H, 12H, 13H-indeno[2,3-a]pyrrolo[3,4-c]carbazole-7(7H)-one] | 150 % of Control
O=C1NCc2c3c(c4[nH]c5ccc(C=Cc6ccccn6)cc5c4c21)Cc1ccccc1-3 [Compound I-41, 3-(2-(2-Pyridylethenyl))-6H,7H,12H,13H-indeno[2,3-a]pyrrolo[3,4-c]carbazole-5(5H)-one] | 122 % of Control
O=C1NCc2c1c1c3ccccc3[nH]c1c1sc3ccccc3c21 [Compound I-42, 6H, 7H, 12H-Benzo[b]thieno[2,3-a]pyrrolo[3,4-c]carbazole-5(5H)one] | 177 % of Control
O=C1NCc2c1c1c3ccccc3sc1c1[nH]c3ccccc3c21 [Compound I-43, 6H, 7H, 12H-Benzo[b]thieno[2,3-a]pyrrolo[3,4-c]carbazole-7(7H)one] | 138 % of Control
O=C1NCc2c1c1c(c3[nH]c4ccc(C=CI)cc4c23)Cc2ccccc2-1 [Compound I-44] | 127 % of Control
O=C1NC(=O)c2c1c1c(c3[nH]c4ccccc4c23)Cc2cc(Br)ccc2-1 [Compound Ia-3, 10-bromo-6H, 12H, 13H-indeno[2,3-a]pyrrolo[3,4-c]carbazole-5,7(5H, 7H)dione] | 138 % of Control
O=C1NC(=O)c2c1c1c(c3[nH]c4ccccc4c23)CCc2cc(F)ccc2-1 [Compound Ia-4, 10-Fluoro-12,13-dihydro-6H, 14H-naphthyl[3,4-a]pyrrolo[3,4-c]carbazole-5,7(5H, 7H)dione] | < 120 % of Control
O=C1NC(=O)c2c1c1c(c3[nH]c4ccccc4c23)CCc2cc(Br)ccc2-1 [Compound Ia-5, 10-Bromo-12,13-dihydro-6H, 14H-naphthyl[3,4,-a]pyrrolo[3,4-c]carbazole-5,7(5H, 7H)dione] | 132 % of Control
O=C1NC(=O)c2c1c1c(c3[nH]c4ccccc4c23)CCc2cc(C=Cc3ccccn3)ccc2-1 [Compound Ia-6] | 139 % of Control
O=C1NC(=O)c2c1c1c(c3[nH]c4ccccc4c23)CCc2cc(CCc3ccccn3)ccc2-1 [Compound Ia-7] | < 120 % of Control
Cc1cccc2c1[nH]c1c3c(c4c(c12)C(=O)NC4=O)-c1ccccc1C3 [Compound Ib-1, 1-Methyl-12H, 13H-indeno[2,3-a]pyrrolo[3,4-c]carbazole-6H-5,7(5H, 7H)-dione] | 138 % of Control
